# Biological target: Aβ42 (Homo sapiens, UniProt P05067)
# Assay: Th-T (thioflavin-T) assay of Aβ42 aggregation
# Format: biochemical
# Conditions: for Th-T assay plate reading, mean of three wells (Supplementary Fig. 47): source data, Ab alone and No Ab as controls
# Chain of Aβ42 (P05067 672-713): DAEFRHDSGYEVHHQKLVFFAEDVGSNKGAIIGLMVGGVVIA
smiles,measurement,setting,value
C=C1CC[C@H]2[C@]3(C)C[C@H](C=C(C)C)O[C@H]3CC[C@]2(C)[C@@H]1Cc1c(OC)oc(C)c(C)c1=O [Compound 24],"Th-T fluorescence, mean of three wells","Aβ42 aggregation time course, reading M117",3.93
same,"Th-T fluorescence, mean of three wells","Aβ42 aggregation time course, reading M118",3.9367
same,"Th-T fluorescence, mean of three wells","Aβ42 aggregation time course, reading M119",3.915
same,"Th-T fluorescence, mean of three wells","Aβ42 aggregation time course, reading M120",3.905
same,"Th-T fluorescence, mean of three wells","Aβ42 aggregation time course, reading M121",3.903
same,"Th-T fluorescence, mean of three wells","Aβ42 aggregation time course, reading M122",3.899
same,"Th-T fluorescence, mean of three wells","Aβ42 aggregation time course, reading M123",3.9273
same,"Th-T fluorescence, mean of three wells","Aβ42 aggregation time course, reading M124",3.899
same,"Th-T fluorescence, mean of three wells","Aβ42 aggregation time course, reading M125",3.909
same,"Th-T fluorescence, mean of three wells","Aβ42 aggregation time course, reading M126",3.889
same,"Th-T fluorescence, mean of three wells","Aβ42 aggregation time course, reading M127",3.86
same,"Th-T fluorescence, mean of three wells","Aβ42 aggregation time course, reading M128",3.875
same,"Th-T fluorescence, mean of three wells","Aβ42 aggregation time course, reading M129",3.876
same,"Th-T fluorescence, mean of three wells","Aβ42 aggregation time course, reading M130",3.844
same,"Th-T fluorescence, mean of three wells","Aβ42 aggregation time course, reading M131",3.869
same,"Th-T fluorescence, mean of three wells","Aβ42 aggregation time course, reading M132",3.865
same,"Th-T fluorescence, mean of three wells","Aβ42 aggregation time course, reading M133",3.8524
same,"Th-T fluorescence, mean of three wells","Aβ42 aggregation time course, reading M134",3.8749
same,"Th-T fluorescence, mean of three wells","Aβ42 aggregation time course, reading M135",3.85
same,"Th-T fluorescence, mean of three wells","Aβ42 aggregation time course, reading M136",3.855
same,"Th-T fluorescence, mean of three wells","Supplementary Fig. 47, reading M137",3.87
same,"Th-T fluorescence, mean of three wells","Supplementary Fig. 47, reading M138",3.855
same,"Th-T fluorescence, mean of three wells","Supplementary Fig. 47, reading M139",3.871
same,"Th-T fluorescence, mean of three wells","Supplementary Fig. 47, reading M140",3.832
same,"Th-T fluorescence, mean of three wells","Supplementary Fig. 47, reading M141",3.853
same,"Th-T fluorescence, mean of three wells","Supplementary Fig. 47, reading M142",3.823
same,"Th-T fluorescence, mean of three wells","Supplementary Fig. 47, reading M143",3.843
same,"Th-T fluorescence, mean of three wells","Supplementary Fig. 47, reading M144",3.8288
same,"Th-T fluorescence, mean of three wells","Supplementary Fig. 47, reading M145",3.794
same,"Th-T fluorescence, mean of three wells","Supplementary Fig. 47 source data, measurement M37 of time course",4.118
same,"Th-T fluorescence, mean of three wells","Supplementary Fig. 47 source data, measurement M38 of time course",4.1
same,"Th-T fluorescence, mean of three wells","Supplementary Fig. 47 source data, measurement M39 of time course",4.133
same,"Th-T fluorescence, mean of three wells","Supplementary Fig. 47 source data, measurement M40 of time course",4.141
same,"Th-T fluorescence, mean of three wells","Supplementary Fig. 47 source data, measurement M41 of time course",4.132
same,"Th-T fluorescence, mean of three wells","Supplementary Fig. 47 source data, measurement M42 of time course",4.118
same,"Th-T fluorescence, mean of three wells","Supplementary Fig. 47 source data, measurement M43 of time course",4.101
same,"Th-T fluorescence, mean of three wells","Supplementary Fig. 47 source data, measurement M44 of time course",4.12
same,"Th-T fluorescence, mean of three wells","Supplementary Fig. 47 source data, measurement M45 of time course",4.146
same,"Th-T fluorescence, mean of three wells","Supplementary Fig. 47 source data, measurement M46 of time course",4.159
same,"Th-T fluorescence, mean of three wells","Supplementary Fig. 47 source data, measurement M47 of time course",4.139
same,"Th-T fluorescence, mean of three wells","Supplementary Fig. 47 source data, measurement M48 of time course",4.146
same,"Th-T fluorescence, mean of three wells","Supplementary Fig. 47 source data, measurement M49 of time course",4.116
same,"Th-T fluorescence, mean of three wells","Supplementary Fig. 47 source data, measurement M50 of time course",4.153
same,"Th-T fluorescence, mean of three wells","Supplementary Fig. 47 source data, measurement M51 of time course",4.157
same,"Th-T fluorescence, mean of three wells","Supplementary Fig. 47 source data, measurement M52 of time course",4.123
same,"Th-T fluorescence, mean of three wells","Supplementary Fig. 47 source data, measurement M53 of time course",4.133
same,"Th-T fluorescence, mean of three wells","Supplementary Fig. 47 source data, measurement M54 of time course",4.156
same,"Th-T fluorescence, mean of three wells","Supplementary Fig. 47 source data, measurement M55 of time course",4.1334
same,"Th-T fluorescence, mean of three wells","Supplementary Fig. 47 source data, measurement M56 of time course",4.113
same,"Th-T assay plate reading, mean of three wells (Supplementary Fig. 47)",measurement M1,0.168
same,"Th-T assay plate reading, mean of three wells (Supplementary Fig. 47)",measurement M2,0.1686
same,"Th-T assay plate reading, mean of three wells (Supplementary Fig. 47)",measurement M3,0.1808
same,"Th-T assay plate reading, mean of three wells (Supplementary Fig. 47)",measurement M4,0.1943
same,"Th-T assay plate reading, mean of three wells (Supplementary Fig. 47)",measurement M5,0.213
same,"Th-T assay plate reading, mean of three wells (Supplementary Fig. 47)",measurement M6,0.2405
same,"Th-T assay plate reading, mean of three wells (Supplementary Fig. 47)",measurement M7,0.3234
same,"Th-T assay plate reading, mean of three wells (Supplementary Fig. 47)",measurement M8,0.379
same,"Th-T assay plate reading, mean of three wells (Supplementary Fig. 47)",measurement M9,0.4389
same,"Th-T assay plate reading, mean of three wells (Supplementary Fig. 47)",measurement M10,0.7586
same,"Th-T assay plate reading, mean of three wells (Supplementary Fig. 47)",measurement M11,1.544
same,"Th-T assay plate reading, mean of three wells (Supplementary Fig. 47)",measurement M12,2.364
same,"Th-T assay plate reading, mean of three wells (Supplementary Fig. 47)",measurement M13,2.959
same,"Th-T assay plate reading, mean of three wells (Supplementary Fig. 47)",measurement M14,3.254
same,"Th-T assay plate reading, mean of three wells (Supplementary Fig. 47)",measurement M15,3.396
same,"Th-T assay plate reading, mean of three wells (Supplementary Fig. 47)",measurement M16,3.5133
same,"Th-T fluorescence, mean of three wells","reading M17, Supplementary Fig. 47 source data",3.637
same,"Th-T fluorescence, mean of three wells","reading M18, Supplementary Fig. 47 source data",3.688
same,"Th-T fluorescence, mean of three wells","reading M19, Supplementary Fig. 47 source data",3.715
same,"Th-T fluorescence, mean of three wells","reading M20, Supplementary Fig. 47 source data",3.759
same,"Th-T fluorescence, mean of three wells","reading M21, Supplementary Fig. 47 source data",3.811
same,"Th-T fluorescence, mean of three wells","reading M22, Supplementary Fig. 47 source data",3.836
same,"Th-T fluorescence, mean of three wells","reading M23, Supplementary Fig. 47 source data",3.884
same,"Th-T fluorescence, mean of three wells","reading M24, Supplementary Fig. 47 source data",3.963
same,"Th-T fluorescence, mean of three wells","reading M25, Supplementary Fig. 47 source data",3.926
same,"Th-T fluorescence, mean of three wells","reading M26, Supplementary Fig. 47 source data",3.978
same,"Th-T fluorescence, mean of three wells","reading M27, Supplementary Fig. 47 source data",3.957
same,"Th-T fluorescence, mean of three wells","reading M28, Supplementary Fig. 47 source data",4.012
same,"Th-T fluorescence, mean of three wells","reading M29, Supplementary Fig. 47 source data",4.002
same,"Th-T fluorescence, mean of three wells","reading M30, Supplementary Fig. 47 source data",4.039
same,"Th-T fluorescence, mean of three wells","reading M31, Supplementary Fig. 47 source data",4.06
same,"Th-T fluorescence, mean of three wells","reading M32, Supplementary Fig. 47 source data",4.053
same,"Th-T fluorescence, mean of three wells","reading M33, Supplementary Fig. 47 source data",4.071
same,"Th-T fluorescence, mean of three wells","reading M34, Supplementary Fig. 47 source data",4.107
same,"Th-T fluorescence, mean of three wells","reading M35, Supplementary Fig. 47 source data",4.086
same,"Th-T fluorescence, mean of three wells","reading M36, Supplementary Fig. 47 source data",4.108
same,"Th-T fluorescence, mean of three wells","time course, reading M57",4.13
same,"Th-T fluorescence, mean of three wells","time course, reading M58",4.119
same,"Th-T fluorescence, mean of three wells","time course, reading M59",4.1173
same,"Th-T fluorescence, mean of three wells","time course, reading M60",4.127
same,"Th-T fluorescence, mean of three wells","time course, reading M61",4.118
same,"Th-T fluorescence, mean of three wells","time course, reading M62",4.092
same,"Th-T fluorescence, mean of three wells","time course, reading M63",4.112
same,"Th-T fluorescence, mean of three wells","time course, reading M64",4.119
same,"Th-T fluorescence, mean of three wells","time course, reading M65",4.128
same,"Th-T fluorescence, mean of three wells","time course, reading M66",4.121
same,"Th-T fluorescence, mean of three wells","time course, reading M67",4.11
same,"Th-T fluorescence, mean of three wells","time-course reading M97, Supplementary Fig. 47 source data",3.985
same,"Th-T fluorescence, mean of three wells","time-course reading M98, Supplementary Fig. 47 source data",4.028
same,"Th-T fluorescence, mean of three wells","time-course reading M99, Supplementary Fig. 47 source data",3.988
same,"Th-T fluorescence, mean of three wells","time-course reading M100, Supplementary Fig. 47 source data",4.004
same,"Th-T fluorescence, mean of three wells","time-course reading M101, Supplementary Fig. 47 source data",3.9991
same,"Th-T fluorescence, mean of three wells","time-course reading M102, Supplementary Fig. 47 source data",3.997
same,"Th-T fluorescence, mean of three wells","time-course reading M103, Supplementary Fig. 47 source data",3.988
same,"Th-T fluorescence, mean of three wells","time-course reading M104, Supplementary Fig. 47 source data",3.979
same,"Th-T fluorescence, mean of three wells","time-course reading M105, Supplementary Fig. 47 source data",4.002
same,"Th-T fluorescence, mean of three wells","time-course reading M106, Supplementary Fig. 47 source data",3.966
same,"Th-T fluorescence, mean of three wells","time-course reading M107, Supplementary Fig. 47 source data",3.935
same,"Th-T fluorescence, mean of three wells","time-course reading M108, Supplementary Fig. 47 source data",3.958
same,"Th-T fluorescence, mean of three wells","time-course reading M109, Supplementary Fig. 47 source data",3.936
same,"Th-T fluorescence, mean of three wells","time-course reading M110, Supplementary Fig. 47 source data",3.951
same,"Th-T fluorescence, mean of three wells","time-course reading M111, Supplementary Fig. 47 source data",3.932
same,"Th-T fluorescence, mean of three wells","time-course reading M112, Supplementary Fig. 47 source data",3.941
same,"Th-T fluorescence, mean of three wells","time-course reading M113, Supplementary Fig. 47 source data",3.942
same,"Th-T fluorescence, mean of three wells","time-course reading M114, Supplementary Fig. 47 source data",3.927
same,"Th-T fluorescence, mean of three wells","time-course reading M115, Supplementary Fig. 47 source data",3.938
same,"Th-T fluorescence, mean of three wells","time-course reading M116, Supplementary Fig. 47 source data",3.922
